pIC50: −log10 of the molar value.
Tests used:
[1] = test system: HCV replicon cells Huh 9B; assay: HCV replicon luciferase assay; format: cell-based; details: Hepatitis C virus; Huh 9B replicon cells, 72 h incubation, luciferase readout
Procedure: (§1) HCV replicon cells Huh 9B (ReBlikon), containing the firefly luciferase—ubiquitin—neomycin phosphotransferase fusion protein and EMCV-IRES driven HCV polyprotein with cell culture adaptive mutations.
(§2) Cells were cultured at 37° C. in a 5% CO2 environment and split twice a week on seeding at 2×10E6 cells/flask on day 1 and 1×10E6 3 days later. Some 0.25 mg/ml G418 was added to the culture medium (125 ul per 25 ml) but not the assay medium.
(§3) The culture medium consisted of DMEM with […] glucose and glutamax (Gibco 61965-026) supplemented with 1× non-essential amino acids, penicillin (100 IU/ml) / streptomycin (100 μg/ml), FCS (10%, 50 ml) and 1 mg/ml G418 (Invitrogen cat no 10131-027) & 10% foetal calf serum.
(§4) A flask of cells was trypsinised and a cell count carried out. Cells were diluted to 100,000 cells/ml and 100 μl of this used to seed one opaque white 96-well plate (for the replicon assay) and one flat-bottomed clear plate (for the tox assay) for every seven compounds to be tested for IC50. Wells G12 and H12 were left empty in the clear plate as the blank. Plates were then incubated at 37° C. in a 5% CO2 environment for 24 h.
(§5) On the following day compound dilutions are made up in medium at twice their desired final concentration in a clear round bottomed plate. All dilutions have a final DMSO concentration of 1%.
(§6) Once the dilution plate had been made up, controls and compounds were transferred to the assay plate (containing the cells) at 100 μl/well in duplicate plates. Exception: in the white (replicon) plate, no compound was added to wells A1 and A2 and 100 μl of 1% DMSO was added to these instead. In the clear (Tox) plate, wells E12 & F12 only contained the DMSO control. Plates were then incubated at 37° C. with 5% CO2 for 72 h.
At the end of the incubation time, the cells in the white plate were harvested by washing with 200 μl/well of warm (37° C.) PBS and lysed with 20 μl cell culture lysis buffer (Promega). […]

[2] = test system: HCV replicon cells Huh 9B; assay: Tox assay (methylene blue staining of replicon cells); format: cell-based; details: Huh 9B replicon cells, 72 h incubation, methylene blue absorbance at 620 nm
Procedure: as §1, §2, §3, §4, §5
as §6, with “Plates were then incubated at 37° C. with 5% CO2 for 72 h.” left out
The clear plate was stained with 100 μl 0.5% methylene blue in 50% ethanol at RT for 1 h, followed by solvation of the absorbed methylene blue in 100 μl per well of 1% lauroylsarcosine. Absorbance of the plate was measured on a microplate spectrophotometer (Molecular Devices) and the absorbance for each concentration of compound expressed as a proportion of the relative DMSO control. […]

SMILES	pIC50 [1]	Replicon TD50 [2]
c1nc(Nc2ccc(N3CCOCC3)cc2)c2cc(-c3ccc4ncnc(Nc5ccc(N6CCOCC6)cc5)c4c3)ccc2n1 [Example 1, N-(4-morpholinophenyl)-6-(4-(4-morpholinophenylamino)quinazolin-6-yl)quinazolin-4-amine]	> 6.00	*** (>25 uM = ***)
c1nc(Nc2ccc(-n3cncn3)cc2)c2cc(-c3ccc4ncnc(Nc5ccc(-n6cncn6)cc5)c4c3)ccc2n1 [Example 3, N*4*,N*4′*-Bis-(4-[1,2,4]triazol-1-yl-phenyl)-[6,6′]biquinazolinyl-4,4′-diamine]	> 6.00	*** (>25 uM = ***)
c1ccc(Nc2ncnc3ccc(-c4ccc5ncnc(Nc6ccc(N7CCOCC7)cc6)c5c4)cc23)cc1 [Example 2, N*4*-(4-Morpholin-4-yl-phenyl)-N*4′*-phenyl-[6,6′]biquinazolinyl-4,4′-diamine]	> 6.00	*** (>25 uM = ***)

Reference: patent US20080114008A1, “Quinazoline Derivatives as Antiviral Agents” (ARROW THERAPEUTICS LIMITED, priority 2005, published 2008)
